From ChEMBL document CHEMBL4270538, “Targeting prohibitin with small molecules to promote melanogenesis and apoptosis in melanoma cells” (Eur J Med Chem, 2018)
Active and inactive are the calls of the source. No cut-off for these calls is given here.

What was measured:
[1] = biological target: T1, Prohibitin 1 (Homo sapiens) (UniProt P35232); assay: Downregulation of PHB1 in human HBL cells at 0.1 to 10 uM after 24 to 48 hrs by Western blot analysis; type: cell-based
T1 sequence (whole entry): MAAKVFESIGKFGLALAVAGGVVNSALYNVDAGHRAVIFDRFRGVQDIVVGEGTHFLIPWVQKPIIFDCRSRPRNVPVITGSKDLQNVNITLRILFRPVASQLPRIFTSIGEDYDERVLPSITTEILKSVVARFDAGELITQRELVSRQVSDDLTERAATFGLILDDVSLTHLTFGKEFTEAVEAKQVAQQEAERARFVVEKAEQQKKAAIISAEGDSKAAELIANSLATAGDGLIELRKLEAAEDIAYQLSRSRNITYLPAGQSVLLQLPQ

[2] = biological target: Prohibitin-2 (Homo sapiens) (UniProt Q99623); assay: Induction of PHB2-mediated melanogenesis in human HBL cells assessed as pigmentation at 1 uM after 10 days relative to control; type: cell-based
Sequence of Prohibitin-2 (Homo sapiens) (Q99623 whole entry): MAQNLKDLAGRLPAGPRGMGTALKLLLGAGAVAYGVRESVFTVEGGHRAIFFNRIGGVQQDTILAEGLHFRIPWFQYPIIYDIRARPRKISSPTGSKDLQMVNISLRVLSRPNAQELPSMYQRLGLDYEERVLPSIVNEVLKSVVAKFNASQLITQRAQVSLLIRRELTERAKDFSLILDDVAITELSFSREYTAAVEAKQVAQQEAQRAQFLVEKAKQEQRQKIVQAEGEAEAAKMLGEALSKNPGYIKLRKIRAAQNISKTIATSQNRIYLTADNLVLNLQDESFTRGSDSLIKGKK

[3] = biological target: Prohibitin-2 (Homo sapiens) (UniProt Q99623); assay: Induction of PHB2-mediated melanogenesis in human HBL cells assessed as pigmentation at 10 uM after 10 days relative to control; type: cell-based
[4] = biological target: Prohibitin-2 (Homo sapiens) (UniProt Q99623); assay: Induction of PHB2-mediated melanogenesis in human MM043 cells assessed as pigmentation at 1 to 10 uM after 10 days relative to control; type: cell-based
[5] = biological target: Prohibitin-2 (Homo sapiens) (UniProt Q99623); assay: Induction of PHB2-mediated melanogenesis in human MM162 cells assessed as pigmentation at 1 to 10 uM after 10 days relative to control; type: cell-based
[6] = biological target: Prohibitin-2 (Homo sapiens) (UniProt Q99623); assay: Binding affinity to PHB2 in human HBL cells assessed as upregulation of MITF protein expression at 0.1 to 10 uM after 24 to 48 hrs by Western blot analysis; type: cell-based
[7] = biological target: Prohibitin-2 (Homo sapiens) (UniProt Q99623); assay: Binding affinity to PHB2 in human HBL cells assessed as upregulation of tyrosinase protein expression at 0.1 to 10 uM after 24 to 48 hrs by Western blot analysis; type: cell-based
[8] = biological target: Prohibitin-2 (Homo sapiens) (UniProt Q99623); assay: Binding affinity to PHB2 in human HBL cells assessed as LC3-2 accumulation after 24 to 48 hrs by Western blot analysis; type: cell-based
[9] = biological target: Prohibitin-2 (Homo sapiens) (UniProt Q99623); assay: Induction of PHB2-mediated melanogenesis in human HBL cells assessed as pigmentation at 10 uM after 10 days in presence of autophagy inhibitor PIK-3; type: cell-based
[10] = biological target: Prohibitin-2 (Homo sapiens) (UniProt Q99623); assay: Induction of PHB2-mediated melanogenesis in human HBL cells assessed as pigmentation at 10 uM after 10 days in presence of autophagy activator HD1; type: cell-based
[11] = biological target: Prohibitin-2 (Homo sapiens) (UniProt Q99623); assay: Binding affinity to PHB2 in human HBL cells assessed as upregulation of MITF protein expression at 10 uM after 24 in presence of autophagy inhibitor PIK-3 by Western blot analysis; type: cell-based
[12] = biological target: Prohibitin-2 (Homo sapiens) (UniProt Q99623); assay: Binding affinity to PHB2 in human HBL cells assessed as upregulation of MITF protein expression at 10 uM after 24 in presence of autophagy activator HD1 by Western blot analysis; type: cell-based
[13] = biological target: Prohibitin-2 (Homo sapiens) (UniProt Q99623); assay: Binding affinity to PHB2 in human HBL cells assessed as LC3-2 accumulation at 10 uM after 24 in presence of autophagy inhibitor PIK-3 by Western blot analysis; type: cell-based
[14] = biological target: Prohibitin-2 (Homo sapiens) (UniProt Q99623); assay: Binding affinity to PHB2 in human HBL cells assessed as LC3-2 accumulation at 10 uM after 24 in presence of autophagy activator HD1 by Western blot analysis; type: cell-based
[15] = biological target: Prohibitin-2 (Homo sapiens) (UniProt Q99623); assay: Binding affinity to PHB2 in human HBL cells assessed as upregulation of ERK phosphorylation at 0.1 to 10 uM after 24 hrs by Western blot analysis; type: cell-based
[16] = biological target: Prohibitin-2 (Homo sapiens) (UniProt Q99623); assay: Binding affinity to PHB2 in human HBL cells assessed as feedback mechanism based inhibition of ERK phosphorylation at 0.1 to 10 uM after 48 hrs by Western blot analysis; type: cell-based
[17] = biological target: Prohibitin-2 (Homo sapiens) (UniProt Q99623); assay: Downregulation of PHB2 in human HBL cells at 0.1 to 10 uM after 24 to 48 hrs by Western blot analysis; type: cell-based
[18] = biological target: RAC-alpha serine/threonine-protein kinase (Homo sapiens) (UniProt P31749); assay: Inhibition of Akt phosphorylation in human HBL cells at 0.1 to 10 uM after 24 to 48 hrs by Western blot analysis; type: cell-based
Sequence of RAC-alpha serine/threonine-protein kinase (Homo sapiens) (P31749 whole entry): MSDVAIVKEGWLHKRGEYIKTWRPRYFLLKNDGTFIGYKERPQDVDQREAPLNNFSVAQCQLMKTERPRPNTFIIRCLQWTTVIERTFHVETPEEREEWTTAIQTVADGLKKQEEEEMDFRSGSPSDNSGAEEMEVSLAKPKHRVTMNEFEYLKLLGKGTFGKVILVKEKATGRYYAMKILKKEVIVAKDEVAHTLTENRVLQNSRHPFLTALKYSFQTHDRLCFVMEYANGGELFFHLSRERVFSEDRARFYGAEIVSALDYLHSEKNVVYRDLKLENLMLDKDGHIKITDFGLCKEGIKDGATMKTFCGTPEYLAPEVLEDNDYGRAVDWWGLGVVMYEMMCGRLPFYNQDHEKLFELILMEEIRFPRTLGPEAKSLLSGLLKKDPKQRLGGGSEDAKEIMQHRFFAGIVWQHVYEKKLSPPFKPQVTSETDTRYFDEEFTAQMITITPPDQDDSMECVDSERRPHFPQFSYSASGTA

[19] = biological target: T1, Prohibitin 1 (Homo sapiens); assay: Downregulation of PHB1 in human MM043 cells at 0.1 to 10 uM after 24 hrs by Western blot analysis; type: cell-based
[20] = biological target: Prohibitin-2 (Homo sapiens) (UniProt Q99623); assay: Downregulation of PHB2 in human MM043 cells at 0.1 to 10 uM after 24 hrs by Western blot analysis; type: cell-based
[21] = biological target: RAC-alpha serine/threonine-protein kinase (Homo sapiens) (UniProt P31749); assay: Inhibition of Akt phosphorylation in human MM043 cells at 0.1 to 10 uM after 24 hrs by Western blot analysis; type: cell-based
[22] = biological target: T1, Prohibitin 1 (Homo sapiens); assay: Downregulation of PHB1 in human MM162 cells at 0.1 to 10 uM after 24 hrs by Western blot analysis; type: cell-based
[23] = biological target: Prohibitin-2 (Homo sapiens) (UniProt Q99623); assay: Downregulation of PHB2 in human MM162 cells at 0.1 to 10 uM after 24 hrs by Western blot analysis; type: cell-based
[24] = biological target: RAC-alpha serine/threonine-protein kinase (Homo sapiens) (UniProt P31749); assay: Inhibition of Akt phosphorylation in human MM162 cells at 0.1 to 10 uM after 24 hrs by Western blot analysis; type: cell-based
HL-60 = assay: Inhibition of cell proliferation in human HL60 cells after 72 hrs by MTS assay; type: functional, cell-based; conditions: HL-60, 72 h
KB = assay: Inhibition of cell proliferation in human KB cells after 72 hrs by MTS assay; type: functional, cell-based
HBL = assay: Induction of apoptosis in human HBL cells at 1 to 10 uM after 48 hrs by Annexin V-PE/7-AAD staining based flow cytometry; type: functional, cell-based
Homo sapiens [25] = species: Homo sapiens; assay: Induction of apoptosis in human MM043 cells at 1 to 10 uM after 48 hrs by Annexin V-PE/7-AAD staining based flow cytometry; type: functional, cell-based
Homo sapiens [26] = species: Homo sapiens; assay: Induction of apoptosis in human MM162 cells at 1 to 10 uM after 48 hrs by Annexin V-PE/7-AAD staining based flow cytometry; type: functional, cell-based
[27] = biological target: T1, Prohibitin 1 (Homo sapiens); assay: Downregulation of PHB1 in human HL60 cells at 0.1 to 10 uM after 24 hrs by Western blot analysis; type: cell-based
[28] = biological target: Prohibitin-2 (Homo sapiens) (UniProt Q99623); assay: Downregulation of PHB2 in human HL60 cells at 0.1 to 10 uM after 24 hrs by Western blot analysis; type: cell-based
[29] = biological target: Prohibitin-2 (Homo sapiens) (UniProt Q99623); assay: Binding affinity to PHB2 in human HL60 cells assessed as LC3-2 accumulation at 0.1 to 10 uM after 24 hrs by Western blot analysis; type: cell-based
[30] = biological target: Prohibitin-2 (Homo sapiens) (UniProt Q99623); assay: Binding affinity to PHB2 in human HL60 cells assessed as upregulation of ERK phosphorylation at 0.1 uM after 24 hrs by Western blot analysis; type: cell-based
[31] = biological target: RAC-alpha serine/threonine-protein kinase (Homo sapiens) (UniProt P31749); assay: Inhibition of Akt phosphorylation in human HL60 cells after 24 to 48 hrs by Western blot analysis; type: cell-based
[32] = biological target: T1, Prohibitin 1 (Homo sapiens); assay: Binding affinity to PHB1 in human HBL cells using affigel conjugated compound after overnight incubation by pull down assay; type: cell-based

SMILES | Activity [1] | fold change (FC) [2] | fold change (FC) [3] | Activity [4] | Activity [5] | Activity [6] | Activity [7] | Activity [8] | Activity [15] | inhibition [16] | Activity [17] | inhibition [18] | IC50 (HL-60) [µM] | IC50 (KB) [µM] | Activity [27] | Activity [28] | Activity [29] | Activity [30] | inhibition [31] | further results
Fc1cccc(CNc2nc(Oc3c(F)c(F)c(F)c(F)c3F)nc(N3CCC(N4CCCCC4)CC3)n2)c1 | Active | 1.15 | 2.01 | Active | Active | Active | Active | Dose-dependent effect | Active | Active | Active | Active | 25 | 46 | Active | Active | Active | Active | Dose-dependent effect | Activity [9]: inactive; Activity [10]: Active; Activity [11]: inactive; Activity [12]: Active; Activity [13]: inactive; Activity [14]: Active; Activity [19]: Active; Activity [20]: Active; inhibition [21]: Active; Activity [22]: Active; Activity [23]: Active; inhibition [24]: Active; Activity (HBL): Active; Activity (Homo sapiens [25]): Active; Activity (Homo sapiens [26]): Active
Fc1c(F)c(F)c(Oc2nc(N3CCC(N4CCCCC4)CC3)nc(N3CCCc4ccccc4C3)n2)c(F)c1F | – | 0.87 | 1.79 | – | – | – | – | – | – | – | – | – | – | – | – | – | – | – | – | Activity [32]: Active
CN(C)CCNc1nc(Oc2c(F)c(F)c(F)c(F)c2F)nc(N2CCCc3ccccc3C2)n1 | Active | 0.89 | 2.23 | Active | Active | Active | Active | Dose-dependent effect | Active | Active | Active | Active | 95 | 63 | Active | Active | Active | Active | Dose-dependent effect | –
